Data taken from patent US9446061B2, “Composition containing antibiotics and lysophosphatidylcholine for boosting immunity or treatment of bacterial infections” (priority 2011, dated 2016).
Marks after values point to notes of the source that are not given here.

Assays:
[1] = system: CPA-CLP sepsis mouse model; assay: Combination effects of LPC and antibiotics (colistin, tobramycin, fusidin) in CPA-CLP sepsis mouse model (SEP013); single i.v. 6 hrs after CLP; format: in vivo, ICR mice; conditions: mpk: LPC 5, DW286aa 5, Colistin 5, Tobra 4, Fusidin 80, LPC + Colistin 5 + 5, LPC + Tobra 5 + 4, LPC + Fusidin 5 + 80
Source text: (§1) CPA is well known as an immunosuppressive agent. […] Then, the abdomen was closed following the general procedure.
(§2) Then, body weight and mortality changes were observed.

[2] = Body weight of CPA-CLP mice (Example 9); conditions: LPC 1, DW286 0.5, Mix 0.75 mg/kg
Procedure: In CPA-CLP model, body weight and mortalities were measured once a day for 5 days with automatic electronic balances (Sartorius Co., Ltd., USA), once a day for 2 days in CPA-treated model. All animals were overnight fasted at CPA dosing, CLP or initial dosing to reduce differences from feeding. In addition, body weight gains were calculated as follows:
CPA-CLP Model: Body weight at sacrifice—at CLP(5 days)
Then, mortalities, changes in thymus and spleen weights, changes in white blood cell (WBC) number, and changes in thymic and splenic CD3+, CD4+, CD8+, and TNF-α+ cell numbers, were evaluated together with changes in bone marrow polychromatic erythrocytes contain micronuclei (MNPCE) number.
Appropriate doses of candidate materials were dissolved in 5% human serum albumin, and subcutaneously dosed at 10 ml/kg (of body weight), 4 times 12-hr intervals from 6 hrs after CLP or 24 hrs after last CPA-dosing, respectively. In the INTACT, CPA, or CPA-CLP control groups, an equal volume of 5% human serum albumin was dosed by the same procedure.

[3] = system: CPA-induced immunosuppressive mice; assay: Thymus and spleen organ weights in CPA-treated mice; format: in vivo, ICR mice; conditions: LPC 1, DW286 0.5, Mix 0.75 mg/kg; for Spleen weight, Relative / Thymus weight, Relative: % of body weight at sacrifice; for Spleen weight, Absolute / Thymus weight, Absolute: at sacrifice
Procedure: At sacrifice of CPA-treated model, the wet-weights of spleen and thymus were measured and regarded as absolute weight and then relative organ weight (% of body weight) was calculated as follow:
=[(Absolute organ weights/Body weight at sacrifice individual)×100]

[4] = system: CPA-CLP sepsis mouse model; assay: Effects of LPC, LPC isomers, Xigris and DW286aa on mortalities/survivabilities in CPA-CLP sepsis mouse model (SEP009); single i.v. 6 hrs after CLP; format: in vivo
Procedure: as §1, §2
In the Sham and CLP control groups, 10 ml/kg of only sterile physiological saline was single intravenously dosed.

[5] = system: blood WBC; assay: Blood WBC numbers and differential counts in CPA-treated mice; format: in vivo, ICR mice; conditions: LPC 1, DW286 0.5, Mix 0.75 mg/kg; for Total WBC / WBC differentials: Basophils / WBC differentials: Eosinophils / WBC differentials: Lymphocytes / WBC differentials: Monocytes / WBC differentials: Neutrophils: blood at sacrifice
Procedure: Blood were collected at sacrifice of CPA-treated model from vena cava and total blood leukocyte numbers were calculated using counting chamber, diluting pipette and Türk solution as dilution solution. All numbers were calculated as ×10^3/mm^3. In addition, cell numbers of lymphocytes, eosinophils, neutrophils, monocytes and basophils were calculated among 100 total leukocytes in smear blood samples stained with Giemsa.

[6] = At First CPA dosing (overnight fasted)
[7] = LPC, LPC18:0, LPC18:1, LPA 5 mpk, Xigris 0.4 mpk, DW286aa 10 mpk, 1st CPA treat
[8] = LPC, LPC18:0, LPC18:1, LPA 5 mpk, Xigris 0.4 mpk, DW286aa 10 mpk, 2nd CPA treat
[9] = LPC, LPC18:0, LPC18:1, LPA 5 mpk, Xigris 0.4 mpk, DW286aa 10 mpk, At CLP (day 0)
[10] = LPC, LPC18:0, LPC18:1, LPA 5 mpk, Xigris 0.4 mpk, DW286aa 10 mpk, Day 1
[11] = LPC, LPC18:0, LPC18:1, LPA 5 mpk, Xigris 0.4 mpk, DW286aa 10 mpk, Day 2
[12] = LPC, LPC18:0, LPC18:1, LPA 5 mpk, Xigris 0.4 mpk, DW286aa 10 mpk, Day 3
[13] = LPC, LPC18:0, LPC18:1, LPA 5 mpk, Xigris 0.4 mpk, DW286aa 10 mpk, Day 4
[14] = LPC, LPC18:0, LPC18:1, LPA 5 mpk, Xigris 0.4 mpk, DW286aa 10 mpk, Day 5
[15] = LPC, LPC18:0, LPC18:1, LPA 5 mpk, Xigris 0.4 mpk, DW286aa 10 mpk, Day 6
[16] = LPC, LPC18:0, LPC18:1, LPA 5 mpk, Xigris 0.4 mpk, DW286aa 10 mpk, Day 7
[17] = LPC, LPC18:0, LPC18:1, LPA 5 mpk, Xigris 0.4 mpk, DW286aa 10 mpk, Day 8
[18] = LPC, LPC18:0, LPC18:1, LPA 5 mpk, Xigris 0.4 mpk, DW286aa 10 mpk, Day 9
[19] = LPC, LPC18:0, LPC18:1, LPA 5 mpk, Xigris 0.4 mpk, DW286aa 10 mpk, Day 10
[20] = LPC, LPC18:0, LPC18:1, LPA 5 mpk, Xigris 0.4 mpk, DW286aa 10 mpk, Total
[21] = Xigris 2 mpk, DW286aa 20 mpk, 1st CPA treat
[22] = Xigris 2 mpk, DW286aa 20 mpk, 2nd CPA treat
[23] = Xigris 2 mpk, DW286aa 20 mpk, At CLP (day 0)
[24] = Xigris 2 mpk, DW286aa 20 mpk, Day 1
[25] = Xigris 2 mpk, DW286aa 20 mpk, Day 2
[26] = Xigris 2 mpk, DW286aa 20 mpk, Day 3
[27] = Xigris 2 mpk, DW286aa 20 mpk, Day 4
[28] = Xigris 2 mpk, DW286aa 20 mpk, Day 5
[29] = Xigris 2 mpk, DW286aa 20 mpk, Day 6
[30] = Xigris 2 mpk, DW286aa 20 mpk, Day 7
[31] = Xigris 2 mpk, DW286aa 20 mpk, Day 8
[32] = Xigris 2 mpk, DW286aa 20 mpk, Day 9
[33] = Xigris 2 mpk, DW286aa 20 mpk, Day 10
[34] = Xigris 2 mpk, DW286aa 20 mpk, Total

CON=C1CN(c2nc3c(cc2F)c(=O)c(C(=O)O)cn3C2CC2)CC1(C)CN.Cl (centres unmarked) [DW286aa, 7-[3-(aminomethyl)-4-(methoxyimino)-3-methyltetrahydro-1H-1-pyrrolyl]-1-cyclopropyl-6-fluoro-4-oxo-1,4-dihydro[1,8]naphthyridine-3-carboxylic acid hydrochloric acid salt]
Mortalities ([1]; 1st CPA treat): 0
Survivalities ([1]; 1st CPA treat): 100%
Mortalities ([1]; 2nd CPA treat): 0
Survivalities ([1]; 2nd CPA treat): 100%
Mortalities ([1]; At CLP (day 0)): 0
Survivalities ([1]; At CLP (day 0)): 100%
Mortalities ([1]; Day 1): 0
Survivalities ([1]; Day 1): 100%
Mortalities ([1]; Day 2): 0
Survivalities ([1]; Day 2): 100%
Mortalities ([1]; Day 3): 2
Survivalities ([1]; Day 3): 80%
Mortalities ([1]; Total): 2
Survivalities ([1]; Total): 80%
Body weight ([2]; 1 day after CLP): 31.50 ± 1.34 g
Body weight ([2]; 2 days after CLP): 29.88 ± 0.98 g
Body weight ([2]; 3 days after CLP): 30.97 ± 0.99 g
Body weight ([2]; At CLP (overnight fasted)): 33.77 ± 1.42 g
Body weight [2, 6]: 34.32 ± 1.32 g
Spleen weight, Relative [3]: 0.117 ± 0.023 %
Thymus weight, Relative [3]: 0.082 ± 0.018 %
absolute splenic weights, change compared to CPA control [3]: −7.08%
absolute thymic weights, change compared to CPA control [3]: −2.73%
relative splenic weights, change compared to CPA control [3]: −7.46%
relative thymic weights, change compared to CPA control [3]: −3.12%
Spleen weight, Absolute [3]: 0.045 ± 0.009 g
Thymus weight, Absolute [3]: 0.032 ± 0.008 g
Mortalities [4, 7]: 0
survivabilities [4, 7]: 100%
Mortalities [4, 8]: 0
survivabilities [4, 8]: 100%
Mortalities [4, 9]: 0
survivabilities [4, 9]: 100%
Mortalities [4, 10]: 1
survivabilities [4, 10]: 90%
Mortalities [4, 11]: 2
survivabilities [4, 11]: 70%
Mortalities [4, 12]: 0
survivabilities [4, 12]: 70%
Mortalities [4, 13]: 0
survivabilities [4, 13]: 70%
Mortalities [4, 14]: 0
survivabilities [4, 14]: 70%
Mortalities [4, 15]: 0
survivabilities [4, 15]: 70%
Mortalities [4, 16]: 2
survivabilities [4, 16]: 50%
Mortalities [4, 17]: 1
survivabilities [4, 17]: 40%
Mortalities [4, 18]: 1
survivabilities [4, 18]: 30%
Mortalities [4, 19]: 0
survivabilities [4, 19]: 30%
Mortalities [4, 20]: 7
survivabilities [4, 20]: 30%
Mortalities [4, 21]: 0
survivabilities [4, 21]: 100%
Mortalities [4, 22]: 0
survivabilities [4, 22]: 100%
Mortalities [4, 23]: 0
survivabilities [4, 23]: 100%
Mortalities [4, 24]: 0
survivabilities [4, 24]: 100%
Mortalities [4, 25]: 1
survivabilities [4, 25]: 90%
Mortalities [4, 26]: 1
survivabilities [4, 26]: 80%
Mortalities [4, 27]: 0
survivabilities [4, 27]: 80%
Mortalities [4, 28]: 0
survivabilities [4, 28]: 80%
Mortalities [4, 29]: 2
survivabilities [4, 29]: 60%
Mortalities [4, 30]: 1
survivabilities [4, 30]: 50%
Mortalities [4, 31]: 0
survivabilities [4, 31]: 50%
Mortalities [4, 32]: 1
survivabilities [4, 32]: 40%
Mortalities [4, 33]: 1
survivabilities [4, 33]: 30%
Mortalities [4, 34]: 7
survivabilities [4, 34]: 30%
blood total WBC numbers, change compared to CPA control [5]: −11.31%
ratio of lymphocytes, change compared to CPA control [5]: −23.56%
ratio of monocytes, change compared to CPA control [5]: 13.43%
ratio of neutrophils, change compared to CPA control [5]: −1.09%
Total WBC [5]: 0.41 ± 0.19 ×10^3/mm^3
WBC differentials: Basophils [5]: 0.89 ± 0.78%
WBC differentials: Eosinophils [5]: 0.22 ± 0.44%
WBC differentials: Lymphocytes [5]: 14.56 ± 9.75 %
WBC differentials: Monocytes [5]: 42.78 ± 17.33 %
WBC differentials: Neutrophils [5]: 41.56 ± 10.64 %

Lysophosphatidylcholine [LPC]
Mortalities ([1]; 1st CPA treat): 0
Survivalities ([1]; 1st CPA treat): 100%
Mortalities ([1]; 2nd CPA treat): 0
Survivalities ([1]; 2nd CPA treat): 100%
Mortalities ([1]; At CLP (day 0)): 0
Survivalities ([1]; At CLP (day 0)): 100%
Mortalities ([1]; Day 1): 2
Survivalities ([1]; Day 1): 80%
Mortalities ([1]; Day 2): 5
Survivalities ([1]; Day 2): 30%
Mortalities ([1]; Day 3): 2
Survivalities ([1]; Day 3): 10%
Mortalities ([1]; Total): 9
Survivalities ([1]; Total): 10%
Body weight ([2]; 1 day after CLP): 30.10 ± 1.23 g
Body weight ([2]; 2 days after CLP): 29.47 ± 1.46 g
Body weight ([2]; 3 days after CLP): 31.40 ± 0.28 g
Body weight ([2]; At CLP (overnight fasted)): 32.98 ± 1.65 g
Body weight [2, 6]: 34.53 ± 1.24 g
Spleen weight, Relative [3]: 0.178 ± 0.018*^,# %
Thymus weight, Relative [3]: 0.099 ± 0.017 %
absolute splenic weights, change compared to CPA control [3]: 35.62%
absolute thymic weights, change compared to CPA control [3]: 13.31%
relative splenic weights, change compared to CPA control [3]: 40.69%
relative thymic weights, change compared to CPA control [3]: 17.56%
Spleen weight, Absolute [3]: 0.066 ± 0.007*^,# g
Thymus weight, Absolute [3]: 0.037 ± 0.007 g
Mortalities [4, 7]: 0
survivabilities [4, 7]: 100%
Mortalities [4, 8]: 0
survivabilities [4, 8]: 100%
Mortalities [4, 9]: 0
survivabilities [4, 9]: 100%
Mortalities [4, 10]: 1
survivabilities [4, 10]: 90%
Mortalities [4, 11]: 3
survivabilities [4, 11]: 60%
Mortalities [4, 12]: 1
survivabilities [4, 12]: 50%
Mortalities [4, 13]: 1
survivabilities [4, 13]: 40%
Mortalities [4, 14]: 2
survivabilities [4, 14]: 20%
Mortalities [4, 15]: 0
survivabilities [4, 15]: 20%
Mortalities [4, 16]: 1
survivabilities [4, 16]: 10%
Mortalities [4, 17]: 1
survivabilities [4, 17]: 0%
Mortalities [4, 18]: 0
survivabilities [4, 18]: 0%
Mortalities [4, 19]: 0
survivabilities [4, 19]: 0%
Mortalities [4, 20]: 10
survivabilities [4, 20]: 0%
blood total WBC numbers, change compared to CPA control [5]: 25.00%
ratio of lymphocytes, change compared to CPA control [5]: 268.78%
ratio of monocytes, change compared to CPA control [5]: −85.27%
ratio of neutrophils, change compared to CPA control [5]: −51.07%
Total WBC [5]: 0.58 ± 0.14 ×10^3/mm^3
WBC differentials: Basophils [5]: 2.33 ± 1.22*^,## %
WBC differentials: Eosinophils [5]: 1.33 ± 1.12 %
WBC differentials: Lymphocytes [5]: 70.22 ± 9.90 %
WBC differentials: Monocytes [5]: 5.56 ± 3.13 %
WBC differentials: Neutrophils [5]: 20.56 ± 8.76 %
